Test results as given in patent US8324390B2, “Tetrazole-substituted anthranilamides as pesticides” (Bayer CropScience AG, priority 2008, dated 2012).
Read-outs that look alike come from different tables or passages of the source.

How the values were obtained:
[1] = system: larvae of the mustard beetle (Phaedon cochleariae); test: Phaedon test (PHAECO spray treatment); settings: Phaedon cochleariae, in Brassica rapa, foliar, read-out: effect in % (beetle larvae killed)
[2] = system: caterpillars of the armyworm (Spodoptera frugiperda); test: Spodoptera frugiperda test (SPODFR spray treatment); assay type: in vivo; settings: Spodoptera frugiperda, foliar, read-out: effect in % (caterpillars killed)
From the text: (§1) Solvent: 78.0 parts by weight of acetone

[3] = log P determination by HPLC (EEC Directive 79/831 Annex V.A8); assay type: physicochemical
Experimental: The measurements were carried out using an Agilent 1100 LC system with a 50*4.6 Zorbax Eclipse C18 1.8 μm column (oven temperature 55° C., flow rate 2.0 ml/min).
The following mobile phases were used:
Mobile phase A: acetonitrile+1000 μl of formic acid/l
Mobile phase B: Millipore water+900 μl of formic acid/l

[4] = system: green peach aphid (Myzus persicae); test: Myzus test (MYZUPE spray treatment); assay type: in vivo; settings: Myzus persicae, foliar, read-out: effect in % (aphids killed)
From the text: Solvent: 78 parts by weight of acetone
as §1

[5] = application rate 100 g/ha, maize leaf discs
[6] = reversed-phase HPLC, Zorbax Eclipse C18 column, determined by HPLC according to EEC Directive 79/831 Annex V.A8, read-out: log P
[7] = application rate 100 g/ha, Chinese cabbage leaf discs
[8] = reversed-phase HPLC, Zorbax Eclipse C18 column, by HPLC according to EEC Directive 79/831 Annex V.A8, read-out: log P

chromatographic logP [3, 6]	chromatographic logP [3, 8]	SMILES	pest or weed control at 100 g/ha [1] [%]	pest or weed control at 100 g/ha ([2]; in Zea mays) [%]	chromatographic logP ([3]; log P)	pest or weed control at 100 g/ha ([4]; in Brassica rapa) [%]	pest or weed control at 100 g/ha [2, 5] [%]	pest or weed control at 100 g/ha [4, 7] [%]	chromatographic logP ([3]; by HPLC according to EEC Directive 79/831 Annex V.A8, read-out: log P)
		Cc1cc(Cl)cc(C(=O)NCC#N)c1NC(=O)c1cc(Cn2nnc(C(F)(F)F)n2)nn1-c1ncccc1Cl [Example 19]	≥ 80	≥ 80	2.93	≥ 80			
2.51		Cc1cc(Br)cc(C(N)=O)c1NC(=O)c1cc(Cn2nnnc2C(F)(F)F)nn1-c1ncccc1Br [Example 498]	≥ 80				≥ 80	≥ 80	
		CNC(=O)c1cc(I)cc(C)c1NC(=O)c1cc(Cn2nnc(C(F)(C(F)(F)F)C(F)(F)F)n2)nn1-c1ncccc1Cl [Example 377]	≥ 80	≥ 80	3.94	≥ 80			
	2.76	Cc1cc(Cl)cc(C(N)=O)c1NC(=O)c1cc(Cn2nnc(C(F)(F)F)n2)nn1-c1ncccc1Br [Example 330]	≥ 80				≥ 80	≥ 80	
		Cc1cc(C#N)cc(C(=O)NOCC2CC2)c1NC(=O)c1cc(Cn2nnc(C(F)(F)F)n2)nn1-c1ncccc1Cl [Example 397]	≥ 80	≥ 80	2.96	≥ 80			
		Cc1cc(Br)cc(C(=O)NC(C)(C)C)c1NC(=O)c1cc(Cn2nnnc2C(F)(F)F)nn1-c1ncccc1Cl [Example 182]	≥ 80	≥ 80	3.62	≥ 80			
		C=CCNC(=O)c1cc(C#N)cc(C)c1NC(=O)c1cc(Cn2nnc(C(F)(F)F)n2)nn1-c1ncccc1Cl [Example 320]	≥ 80	≥ 80	2.97	≥ 80			
3.27		Cc1cc(Br)cc(C(=O)NC(C)C)c1NC(=O)c1cc(Cn2nnnc2C(F)(F)F)nn1-c1ncccc1Br [Example 501]	≥ 80				≥ 80	≥ 80	
		Cc1cc(Cl)cc(C(=O)NC(C)C)c1NC(=O)c1cc(Cn2nnc(C(F)(F)C(F)(F)F)n2)nn1-c1ncccc1Cl [Example 129]	≥ 80	≥ 80	3.94	≥ 80			
		Cc1cc(C#N)cc(C(=O)NC2CCC2)c1NC(=O)c1cc(Cn2nnc(C(F)F)n2)nn1-c1ncccc1Cl [Example 270]	≥ 80	≥ 80	2.7	≥ 80			
		Cc1cc(C#N)cc(C(=O)NC(C)(C)C)c1NC(=O)c1cc(Cn2nnc(C(F)(F)F)n2)nn1-c1ncccc1Cl [Example 15]	≥ 80	≥ 80	3.4	≥ 80			
		Cc1cc(I)cc(C(=O)NC(C)C)c1NC(=O)c1cc(Cn2nnnc2C(F)(F)F)nn1-c1ncccc1Cl [Example 173]	≥ 80	≥ 80	3.36	≥ 80			
2.95		Cc1cc(C#N)cc(C(=O)NC2CC2)c1NC(=O)c1cc(Cn2nnnc2C(F)(F)F)nn1-c1ccccc1Cl [Example 525]	≥ 80				≥ 80	≥ 80	
3.54		Cc1cc(Cl)cc(C(=O)NC(C)C)c1NC(=O)c1cc(Cn2nnnc2C(F)(F)C(F)(F)F)nn1-c1ncccc1Br [Example 513]	≥ 80				≥ 80	≥ 80	
		Cc1cc(C#N)cc(C(=O)NC(C)C2CC2)c1NC(=O)c1cc(Cn2nnnc2C(F)F)nn1-c1ncccc1Cl (stereo not shown) [Example 467]	≥ 80	≥ 80	2.58	≥ 80			
3.18		COCCNC(=O)c1cc(C#N)cc(C)c1NC(=O)c1cc(Cn2nnc(C(F)(F)F)n2)nn1-c1ccccc1Cl [Example 435]	≥ 80				≥ 80	≥ 80	
	3.25	Cc1cc(Cl)cc(C(=O)NC2CC2)c1NC(=O)c1cc(Cn2nnc(C(F)(F)F)n2)nn1-c1ncccc1Br [Example 335]	≥ 80				≥ 80	≥ 80	

chromatographic logP [3, 6]	chromatographic logP [3, 8]	SMILES	pest or weed control at 100 g/ha [1] [%]	pest or weed control at 100 g/ha ([2]; in Zea mays) [%]	chromatographic logP ([3]; log P)	pest or weed control at 100 g/ha ([4]; in Brassica rapa) [%]	pest or weed control at 100 g/ha [2, 5] [%]	pest or weed control at 100 g/ha [4, 7] [%]	chromatographic logP ([3]; by HPLC according to EEC Directive 79/831 Annex V.A8, read-out: log P)
		Cc1cc(I)cc(C(=O)NCC#N)c1NC(=O)c1cc(Cn2nnc(C(F)F)n2)nn1-c1ncccc1Cl [Example 281]	≥ 80	≥ 80	2.68	≥ 80			
		N#CCNC(=O)c1cc(Cl)cc(Cl)c1NC(=O)c1cc(Cn2nnc(C(F)(F)F)n2)nn1-c1ncccc1Cl [Example 59]	≥ 80	≥ 80	2.92	≥ 80			
	3.09	CNC(=O)c1cc(C#N)cc(C)c1NC(=O)c1cc(Cn2nnc(C(F)(F)F)n2)nn1-c1ccccc1Cl [Example 310]	≥ 80				≥ 80	≥ 80	
		Cc1cc(Cl)cc(C(=O)NCC#N)c1NC(=O)c1cc(Cn2nnc(C(F)(F)C(F)(F)C(F)(F)F)n2)nn1-c1ncccc1Cl [Example 8]	≥ 80	≥ 80		≥ 80			3.65
		Cc1cc(Br)cc(C(=O)NC(C)C)c1NC(=O)c1cc(Cn2nnnc2C(F)(F)F)nn1-c1ncccc1Cl [Example 171]	≥ 80	≥ 80	3.22	≥ 80			
		Cc1cc(C#N)cc(C(=O)NC2(C)CCC2)c1NC(=O)c1cc(Cn2nnc(C(F)(F)F)n2)nn1-c1ncccc1Cl [Example 89]	≥ 80	≥ 80	3.46	≥ 80			
3.84		Cc1cc(C#N)cc(C(=O)NCC(C)C)c1NC(=O)c1cc(Cn2nnc(C(F)(F)F)n2)nn1-c1ccccc1Cl [Example 533]	≥ 80				≥ 80	≥ 80	
		CSC[C@H](C)NC(=O)c1cc(I)cc(C)c1NC(=O)c1cc(Cn2nnc(C(F)(F)F)n2)nn1-c1ncccc1Cl [Example 74]	≥ 80	≥ 80	3.9	≥ 80			
3.36		CCNC(=O)c1cc(Br)cc(C)c1NC(=O)c1cc(Cn2nnc(C(F)(F)F)n2)nn1-c1ncccc1Br [Example 411]	≥ 80				≥ 80	≥ 80	
		Cc1cc(I)cc(C(=O)NCC#N)c1NC(=O)c1cc(Cn2nnc(C(F)(F)F)n2)nn1-c1ncccc1Cl [Example 70]	≥ 80	≥ 80	3.14	≥ 80			
2.64		Cc1cc(Cl)cc(C(=O)NCC#N)c1NC(=O)c1cc(Cn2nnnc2C(F)(F)F)nn1-c1ncccc1Br [Example 486]	≥ 80				≥ 80	≥ 80	
		Cc1cc(C#N)cc(C(N)=O)c1NC(=O)c1cc(C(C)n2nnc(C(F)(F)F)n2)nn1-c1ncccc1Cl (stereo not shown) [Example 437]	≥ 80	≥ 80	2.66	≥ 80			
		Cc1cc(Br)cc(C(=O)NCC#N)c1NC(=O)c1cc(Cn2nnc(C(F)(F)F)n2)nn1-c1ncccc1Cl [Example 52]	≥ 80	≥ 80	3.02	≥ 80			
		C=C(C)CNC(=O)c1cc(C#N)cc(C)c1NC(=O)c1cc(Cn2nnc(C(F)(F)F)n2)nn1-c1ncccc1Cl [Example 338]	≥ 80	≥ 80	3.21	≥ 80			
3.25		Cc1cc(C#N)cc(C(=O)NCC2CC2)c1NC(=O)c1cc(Cn2nnnc2C(F)(F)F)nn1-c1ccccc1Cl [Example 526]	≥ 80				≥ 80	≥ 80	
		Cc1cc(C)c(NC(=O)c2cc(Cn3nnnc3C(F)(F)F)nn2-c2ncccc2Cl)c(C(=O)NC2CC2)c1 [Example 180]	≥ 80	≥ 80	2.71	≥ 80			
		Cc1cc(C#N)cc(C(=O)NCC2CC2)c1NC(=O)c1cc(Cn2nnc(C(F)(F)F)n2)nn1-c1ncccc1Cl [Example 23]	≥ 80	≥ 80	3.13	≥ 80			
